# Reference: ChEMBL document CHEMBL5260842 (J Med Chem, 2019)
# Calls of active or inactive are those of the source. The calls are words filed in the database; no cut-off is given here.
# How the values were obtained:
# [1] = Downregulation of PSA mRNA expression in human LNCaP cells at 10 nM measured after 24 hrs by qRT-PCR analysis relative to control; format: functional
# VCaP [2] = test: Downregulation of FKBP5 mRNA expression in human VCaP cells measured after 24 hrs by charcoal stripped serum based qRT-PCR analysis; format: functional, cell-based; details: dose 1-1000 nM
# [3] = target: T1, von Hippel-Lindau disease tumor suppressor/Androgen receptor (Homo sapiens, UniProt P10275+P40337); test: Protac activity at VHL/AR in AR-positive human VCaP cells assessed as induction of androgen receptor degradation at 100 nM preincubated with VHL ligand, (2S,4R)-4-hydroxy-1-((R)-3-methyl-2-(3-methylisoxazol-5-yl)butanoyl)-N-((S)-3-(methylamino)-1-(4-(4-methylthiazol-5-yl)phenyl)-3-oxopropyl)pyrrolidine-2-carboxamide for 2 hrs followed by compound addition and measured after 6 hrs by Western blot analysis; format: cell-based
# Target sequence in this assay (P10275 whole entry, looked up): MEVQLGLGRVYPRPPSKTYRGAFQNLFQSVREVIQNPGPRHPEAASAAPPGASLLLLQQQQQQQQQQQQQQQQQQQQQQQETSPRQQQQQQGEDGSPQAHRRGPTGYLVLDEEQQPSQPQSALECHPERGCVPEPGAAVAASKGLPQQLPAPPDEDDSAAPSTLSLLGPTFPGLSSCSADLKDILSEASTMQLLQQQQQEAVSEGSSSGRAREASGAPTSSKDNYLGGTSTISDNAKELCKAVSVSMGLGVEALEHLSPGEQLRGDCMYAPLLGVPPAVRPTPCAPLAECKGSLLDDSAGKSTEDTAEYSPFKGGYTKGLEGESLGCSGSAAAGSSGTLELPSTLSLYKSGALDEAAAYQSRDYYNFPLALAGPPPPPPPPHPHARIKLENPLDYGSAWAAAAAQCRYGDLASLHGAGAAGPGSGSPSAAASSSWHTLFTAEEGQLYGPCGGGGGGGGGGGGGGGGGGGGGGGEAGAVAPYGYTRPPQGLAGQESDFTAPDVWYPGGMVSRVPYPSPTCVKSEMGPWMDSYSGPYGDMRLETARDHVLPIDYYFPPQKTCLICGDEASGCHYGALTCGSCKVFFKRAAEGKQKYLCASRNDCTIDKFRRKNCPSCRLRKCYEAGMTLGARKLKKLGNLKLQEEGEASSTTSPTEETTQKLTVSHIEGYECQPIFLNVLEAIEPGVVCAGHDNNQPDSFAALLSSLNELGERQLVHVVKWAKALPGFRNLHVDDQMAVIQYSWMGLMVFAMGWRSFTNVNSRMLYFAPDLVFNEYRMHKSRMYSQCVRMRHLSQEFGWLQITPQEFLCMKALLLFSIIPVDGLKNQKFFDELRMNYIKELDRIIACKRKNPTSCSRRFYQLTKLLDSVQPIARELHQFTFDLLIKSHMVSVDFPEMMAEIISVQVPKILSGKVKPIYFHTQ
# Target sequence in this assay (P40337 whole entry, looked up): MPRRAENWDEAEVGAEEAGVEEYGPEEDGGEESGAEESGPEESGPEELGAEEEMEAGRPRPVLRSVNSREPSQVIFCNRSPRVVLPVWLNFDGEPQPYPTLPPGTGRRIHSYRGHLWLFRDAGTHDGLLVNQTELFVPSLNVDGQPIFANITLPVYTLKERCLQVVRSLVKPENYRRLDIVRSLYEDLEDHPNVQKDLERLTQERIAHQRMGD
# [4] = Downregulation of PSA mRNA expression in human VCaP cells at 10 nM measured after 24 hrs by charcoal stripped serum based qRT-PCR analysis relative to control; format: functional
# VCaP [5] = test: Downregulation of TMPRSS2 mRNA expression in human VCaP cells measured after 24 hrs by charcoal stripped serum based qRT-PCR analysis; format: functional, cell-based; details: dose 1-1000 nM
# [6] = target: T1, von Hippel-Lindau disease tumor suppressor/Androgen receptor; test: Protac activity at VHL/AR in AR-positive human LNCaP cells assessed as induction of androgen receptor degradation at 100 nM preincubated with VHL ligand, (2S,4R)-4-hydroxy-1-((R)-3-methyl-2-(3-methylisoxazol-5-yl)butanoyl)-N-((S)-3-(methylamino)-1-(4-(4-methylthiazol-5-yl)phenyl)-3-oxopropyl)pyrrolidine-2-carboxamide for 2 hrs followed by compound addition and measured after 6 hrs by Western blot analysis; format: cell-based
# Target sequence in this assay (P10275 whole entry, looked up): as the sequence (P10275 whole entry, looked up) above
# Target sequence in this assay (P40337 whole entry, looked up): as the sequence (P40337 whole entry, looked up) above
# VCaP [7] = test: Potency index, ratio of enzalutamide IC50 to test compound IC50 for cytotoxicity against AR-positive human VCaP cells assessed as inhibition of cell growth incubated for 7 days in presence of AR agonist, R1881 in charcoal stripped medium by WST-8 assay; format: functional; details: time 7 day
# [8] = target: T1, von Hippel-Lindau disease tumor suppressor/Androgen receptor; test: Protac activity at VHL/AR in human LNCaP cells assessed as induction of protein degradation measured after 24 hrs by Western blot analysis; format: cell-based
# Target sequence in this assay (P10275 whole entry): as the sequence (P10275 whole entry, looked up) above
# Target sequence in this assay (P40337 whole entry): as the sequence (P40337 whole entry, looked up) above
# VCaP [9] = test: Downregulation of PSA mRNA expression in human VCaP cells measured after 24 hrs by charcoal stripped serum based qRT-PCR analysis; format: functional, cell-based; details: dose 1-1000 nM
# [10] = target: T1, von Hippel-Lindau disease tumor suppressor/Androgen receptor; test: Protac activity at VHL/AR in AR-positive human LNCaP cells assessed as induction of androgen receptor degradation at 100 nM preincubated with N-((1r,3r)-3-(3-chloro-4-cyanophenoxy)-2,2,4,4-tetramethylcyclobutyl)-1-(2-hydroxyethyl)-1H-pyrazole-4-carboxamide for 2 hrs followed by compound addition and measured after 6 hrs by Western blot analysis; format: cell-based
# Target sequence in this assay (P10275 whole entry, looked up): as the sequence (P10275 whole entry, looked up) above
# Target sequence in this assay (P40337 whole entry, looked up): as the sequence (P40337 whole entry, looked up) above
# [11] = target: T1, von Hippel-Lindau disease tumor suppressor/Androgen receptor; test: Protac activity at VHL/AR in AR-positive human LNCaP cells assessed as induction of androgen receptor degradation at 0.1 uM incubated for 6 hrs by Western blot analysis (reference value: 0%); format: cell-based
# Target sequence in this assay (P10275 whole entry, looked up): as the sequence (P10275 whole entry, looked up) above
# Target sequence in this assay (P40337 whole entry, looked up): as the sequence (P40337 whole entry, looked up) above
# [12] = target: T1, von Hippel-Lindau disease tumor suppressor/Androgen receptor; test: Protac activity at VHL/AR in human 22Rv1 cells assessed as induction of protein degradation measured after 24 hrs by Western blot analysis; format: cell-based
# Target sequence in this assay (P10275 whole entry): as the sequence (P10275 whole entry, looked up) above
# Target sequence in this assay (P40337 whole entry): as the sequence (P40337 whole entry, looked up) above
# [13] = Downregulation of TMPRSS2 mRNA expression in human VCaP cells at 10 nM measured after 24 hrs by charcoal stripped serum based qRT-PCR analysis relative to control; format: functional
# VCaP [14] = test: Cytotoxicity against AR-positive human VCaP cells assessed as inhibition of cell growth incubated for 7 days in presence of AR agonist, R1881 in charcoal stripped medium by WST-8 assay; format: functional, cell-based; details: 168 h
# [15] = Downregulation of TMPRSS2 mRNA expression in human LNCaP cells at 10 nM measured after 24 hrs by qRT-PCR analysis relative to control; format: functional
# [16] = target: T1, von Hippel-Lindau disease tumor suppressor/Androgen receptor; test: Protac activity at VHL/AR in AR-positive human VCaP cells assessed as induction of androgen receptor degradation at 100 nM preincubated with N-((1r,3r)-3-(3-chloro-4-cyanophenoxy)-2,2,4,4-tetramethylcyclobutyl)-1-(2-hydroxyethyl)-1H-pyrazole-4-carboxamide for 2 hrs followed by compound addition and measured after 6 hrs by Western blot analysis; format: cell-based
# Target sequence in this assay (P10275 whole entry, looked up): as the sequence (P10275 whole entry, looked up) above
# Target sequence in this assay (P40337 whole entry, looked up): as the sequence (P40337 whole entry, looked up) above
# [17] = target: T1, von Hippel-Lindau disease tumor suppressor/Androgen receptor; test: Protac activity at VHL/AR in AR-positive human VCaP cells assessed as induction of androgen receptor degradation at 100 nM preincubated with NEDD8 activating E1 enzyme inhibitor, MLN4924 for 2 hrs followed by compound addition and measured after 6 hrs by Western blot analysis; format: cell-based
# Target sequence in this assay (P10275 whole entry, looked up): as the sequence (P10275 whole entry, looked up) above
# Target sequence in this assay (P40337 whole entry, looked up): as the sequence (P40337 whole entry, looked up) above
# LNCaP [18] = test: Downregulation of TMPRSS2 mRNA expression in human LNCaP cells measured after 24 hrs by qRT-PCR analysis; format: functional, cell-based; details: dose 0.1-10000 nM
# VCaP [19] = test: Downregulation of ERG gene expression in human VCaP cells measured after 24 hrs by regular serum based qRT-PCR analysis; format: functional, cell-based; details: dose 1-1000 nM
# LNCaP [20] = test: Potency index, ratio of enzalutamide IC50 to test compound IC50 for cytotoxicity against AR-positive human LNCaP cells assessed as inhibition of cell growth incubated for 7 days in presence of AR agonist, R1881 in charcoal stripped medium by WST-8 assay; format: functional; details: time 7 day
# [21] = target: T1, von Hippel-Lindau disease tumor suppressor/Androgen receptor; test: Protac activity at VHL/AR in AR-positive human LNCaP cells assessed as induction of androgen receptor degradation at 100 nM preincubated with NEDD8 activating E1 enzyme inhibitor, MLN4924 for 2 hrs followed by compound addition and measured after 6 hrs by Western blot analysis; format: cell-based
# CWR22R = test: Potency index, ratio of enzalutamide IC50 to test compound IC50 for cytotoxicity against AR-positive human 22Rv1 cells assessed as inhibition of cell growth incubated for 7 days in regular culture medium by WST-8 assay; format: functional; details: time 7 day
# VCaP [22] = test: Downregulation of PSA mRNA expression in human VCaP cells measured after 24 hrs by regular serum based qRT-PCR analysis; format: functional, cell-based; details: dose 1-1000 nM
# [23] = Downregulation of TMPRSS2 mRNA expression in human VCaP cells at 10 nM measured after 24 hrs by regular serum based qRT-PCR analysis relative to control; format: functional
# [24] = target: T1, von Hippel-Lindau disease tumor suppressor/Androgen receptor; test: Protac activity at VHL/AR in human VCaP cells assessed as induction of protein degradation measured after 24 hrs by Western blot analysis; format: cell-based
# Target sequence in this assay (P10275 whole entry): as the sequence (P10275 whole entry, looked up) above
# Target sequence in this assay (P40337 whole entry): as the sequence (P40337 whole entry, looked up) above
# LNCaP [25] = test: Cytotoxicity against AR-positive human LNCaP cells assessed as inhibition of cell growth incubated for 7 days in presence of AR agonist, R1881 in charcoal stripped medium by WST-8 assay; format: functional, cell-based; details: 168 h
# [26] = target: T1, von Hippel-Lindau disease tumor suppressor/Androgen receptor; test: Protac activity at VHL/AR in AR-positive human VCaP cells assessed as induction of androgen receptor degradation at 100 nM preincubated with proteasome inhibitor, MG132 for 2 hrs followed by compound addition and measured after 6 hrs by Western blot analysis; format: cell-based
# [27] = system: von Hippel-Lindau disease tumor suppressor/Androgen receptor (Homo sapiens); test: In vivo protac activity at VHL/AR in human VCaP cells xenografted SCID mouse assessed as reduction in AR protein level in tumor at 50 mg/kg, ip administered as single dose measured after 3 to 48 hrs Western blot analysis; details: time 3-48 hrs
# VCaP [28] = test: Downregulation of FKBP5 mRNA expression in human VCaP cells measured after 24 hrs by regular serum based qRT-PCR analysis; format: functional, cell-based; details: dose 1-1000 nM
# [29] = Downregulation of PSA mRNA expression in human VCaP cells at 10 nM measured after 24 hrs by regular serum based qRT-PCR analysis relative to control; format: functional
compound,measurement,setting,value
Cc1ncsc1-c1ccc([C@H](CC(=O)N2CCC(N3CCC(C#Cc4ccc(C(=O)N[C@H]5C(C)(C)[C@H](Oc6ccc(C#N)c(Cl)c6)C5(C)C)cc4)CC3)CC2)NC(=O)[C@@H]2C[C@@H](O)CN2C(=O)[C@@H](NC(=O)C2(F)CC2)C(C)(C)C)cc1,Activity,[1],>50%
same,Activity,VCaP [2],Dose-Dependent Effect
same,Activity,[3],inactive
same,Activity,[4],>50%
same,Activity,VCaP [5],Dose-Dependent Effect
same,Activity,[6],inactive
same,Ratio IC50,VCaP [7],>100
same,EC50,[8],0.86 nM
same,Activity,VCaP [9],Dose-Dependent Effect
same,Activity,[10],inactive
same,Activity,[11],99%
same,EC50,[12],10.4 nM
same,Activity,[13],>50%
same,IC50,VCaP [14],0.34 nM
same,Activity,[15],>50%
same,Activity,[16],inactive
same,Activity,[17],inactive
same,Activity,LNCaP [18],Dose-Dependent Effect
same,Activity,VCaP [19],Dose-Dependent Effect
same,Ratio IC50,LNCaP [20],>100
same,Activity,[21],inactive
same,Ratio IC50,CWR22R,>100
same,Activity,VCaP [22],Dose-Dependent Effect
same,Activity,[23],>50%
same,EC50,[24],0.76 nM
same,IC50,LNCaP [25],0.25 nM
same,Activity,[26],inactive
same,Activity,[27],Active
same,Activity,VCaP [28],Dose-Dependent Effect
same,Activity,[29],>50%
